# Laboratory results from patent US20220313620A1, “COMPOSITION FOR PREVENTING AND TREATING TAUOPATHIES” (SERVICIO ANDALUZ DE SALUD, priority 2019, published 2022).
# System: Ghrelin
# Experiment: Plasma ghrelin (ELISA) after acute oral gavage in fasted rats
# Type: in vivo
# Conditions: adult male Wistar rats
# Method: The protocol was approved by the Ethics Committee for Animal Experiments of the University of Malaga.
# D-Pinitol (3-0-methyl-D-chiro-inositol) was generously provided by EURONUTRA SL (https://www.euronutra.com/, Malaga, Spain), in the form of crystalline fine powder (lot: PPN-M0201). For acute treatments, D-Pinitol was dissolved in water to be administered by gavage (orally) at different concentrations (100 mg/Kg and 500 mg/Kg), drug was administered at a volume of 1 ml/kg.
# After 18 hours of fasting, D-Pinitol dissolved in water was administered acutely by gavage (100 mg/kg in a first study, and 500 mg/kg in a subsequent study). After administration, the animals were sacrificed in groups at different times (being time 0 the administration of D-Pinitol). For the first study (100 mg/kg), groups of animals were sacrificed at times: 10, 20, 30, 60, 120, 240 and 360 minutes after administration; for the second study (500 mg/kg), animals were sacrificed at times: 60, 120 and 240 minutes after administration. As a control group, a group was administered only with water (by gavage).
# Animals were anesthetized with sodium pentobarbital (50 mg/Kg, i.p.), blood, brain and liver samples were collected. Blood was centrifuged (2100 g for 8 min, 4° C.) and the plasma kept for further analysis. Liver and brain samples were flash-frozen in liquid N2, then stored at −80° C. until further analysis.
# The plasma levels of insulin and ghrelin were determined with an enzyme-linked immunosorbent assay (ELISA) method using commercial kits: EMD Millipore Corporation (Billerica, Mass., USA) Cat. #EZRMI-13K and Cat. #EZRGRT-91K, respectively. Glucagon levels in plasma was determined with a Glucagon Enzyme Immunoassay (EIA) Kit: Cat. #RAB0202 Sigma-Aldrich (Saint Louis, Mo., USA). All serum samples were assayed in duplicate within one assay, and results were expressed in terms of the particular standard hormone.
structure (smiles),measurement,setting,value
"COC1[C@@H](O)[C@@H](O)C(O)[C@H](O)[C@H]1O (stereo partly drawn) [DPIN, (1S,2S,4S,5R)-6-methoxycyclohexane-1,2,3,4,5-pentol]",circulating plasma Ghrelin concentration,"oral 100 mg/kg in sterile water, FIG. 2A",increase
same,circulating plasma Ghrelin concentration,"oral 500 mg/kg, FIG. 3A / FIG. 4",increase
